# Measurements: paper PMC6792352, “Limited Chemical Structural Diversity Found to Modulate Thyroid Hormone Receptor in the Tox21 Chemical Library” (Environmental Health Perspectives, 2019)
# Structures can show the parent of a compound that is named as a salt. Where two headings read alike, the source gives them in different places. Starred links: 1 amine or outer side, 2 acyl side, 3 side chain; linkers in the order of their positions; H or OH if unused. Positions of bridges follow the written chain, without caps; N, C: chain ends. Non-standard residues stand in square brackets, D forms with d. Residues, ends and D or L forms follow the SMILES beside them. Chains are numbered I, II in the order given. Actinocin(9to1) = Cc1c2oc3c(C)ccc(C(=O)[*:1])c3nc-2c(C(=O)[*:2])c(N)c1=O; NMeV = CN[C@H](C(=O)O)C(C)C; Sar = CNCC(=O)O
# Test system: GH3-TRE-Luc cell line
# Conditions: read-out: AC50 (uM) modified / 1000, viability, 1 nM T3 present, 24 h
compound,measurement,setting,value
C[C@@H]1C[C@@H]([C@H](O)CC2CC(=O)NC(=O)C2)C(=O)[C@@H](C)C1 [Cycloheximide],CC50,Tox21_110001=Tox21_113580,0.256 µM
same,CC50,Tox21_110001=Tox21_201158,0.0922 µM
same,CC50,Tox21_110001=Tox21_303652,1.49 µM
CCOc1ccc2c(c1)C(C)=CC(C)(C)N2 [Ethoxyquin],CC50,Tox21_110001=Tox21_110388,39.8 µM
Cc1c(C)c2c(c(C)c1OC(=O)CCC(=O)O)CC[C@@](C)(CCC[C@H](C)CCC[C@H](C)CCCC(C)C)O2 [d-alpha-Tocopheryl succinate],CC50,Tox21_110001=Tox21_200568,20 µM
CCCC[n+]1ccc(C)cc1 [1-Butyl-4-methylpyridinium chloride],CC50,Tox21_110001=Tox21_202685,39.2 µM
NC(=O)c1ncn([C@@H]2O[C@H](CO)[C@@H](O)[C@H]2O)n1 [Ribavirin],CC50,Tox21_110001=Tox21_110259,40.1 µM
CC(=O)N1CCN(c2ccc(OC[C@@H]3CO[C@@](Cn4ccnc4)(c4ccc(Cl)cc4Cl)O3)cc2)CC1 (racemic) [Ketoconazole],CC50,Tox21_110001=Tox21_300267,23.7 µM
CC(=O)Nc1ccc(C(=O)CCl)cc1 [4'-(Chloroacetyl)acetanilide],CC50,Tox21_110001=Tox21_302954,16.5 µM
"BrC1CCC(Br)C(Br)CCC(Br)C(Br)CCC1Br (stereo not drawn) [1,2,5,6,9,10-Hexabromocyclododecane]",CC50,Tox21_110001=Tox21_201402,17.5 µM
same,CC50,Tox21_110001=Tox21_303176,38.8 µM
CNCCC(Oc1ccc(C(F)(F)F)cc1)c1ccccc1 (stereo not drawn) [Fluoxetine],CC50,Tox21_110001=Tox21_110144,8.3 µM
O=C(CCCN1CCC(O)(c2ccc(Cl)cc2)CC1)c1ccc(F)cc1 [Haloperidol],CC50,Tox21_110001=Tox21_110162,20.6 µM
same,CC50,Tox21_110001=Tox21_300475,52.1 µM
CC(C)(C)c1cc(O)ccc1O [tert-Butylhydroquinone],CC50,Tox21_110001=Tox21_110007,7.35 µM
same,CC50,Tox21_110001=Tox21_202309,64.9 µM
same,CC50,Tox21_110001=Tox21_300081,37.7 µM
O=C1OC2(c3ccccc31)c1cc(I)c(O)c(I)c1Oc1c2cc(I)c(O)c1I [FD&C Red 3],CC50,Tox21_110001=Tox21_202932,18.4 µM
same,CC50,Tox21_110001=Tox21_302085,23.6 µM
Oc1cccc2cccnc12 [8-Hydroxyquinoline],CC50,Tox21_110001=Tox21_113083,3 µM
same,CC50,Tox21_110001=Tox21_202986,3.28 µM
same,CC50,Tox21_110001=Tox21_400006,3.8 µM
"Cc1c2oc3c(C)ccc(C(=O)N[C@@H]4C(=O)N[C@H](C(C)C)C(=O)N5CCC[C@H]5C(=O)N(C)CC(=O)N(C)[C@@H](C(C)C)C(=O)O[C@@H]4C)c3nc-2c(C(=O)N[C@@H]2C(=O)N[C@H](C(C)C)C(=O)N3CCC[C@H]3C(=O)N(C)CC(=O)N(C)[C@@H](C(C)C)C(=O)O[C@@H]2C)c(N)c1=O [Actinomycin D] (I: T[dV]P[Sar][NMeV] / II: T[dV]P[Sar][NMeV]; ester I:1-I:C, II:1-II:C; linker I:N-II:N via Actinocin(9to1))",CC50,Tox21_110001=Tox21_111997,0.00788 µM
same,CC50,Tox21_110001=Tox21_202482,0.000903 µM
CCc1nn(CCCN2CCN(c3cccc(Cl)c3)CC2)c(=O)n1CCOc1ccccc1 [Nefazodone hydrochloride],CC50,Tox21_110001=Tox21_111735,9.43 µM
same,CC50,Tox21_110001=Tox21_113574,23.6 µM
Nc1ccn([C@@H]2O[C@H](CO)[C@@H](O)[C@@H]2O)c(=O)n1 [Cytarabine hydrochloride],CC50,Tox21_110001=Tox21_300488,0.11 µM
CN(C)c1ccc(C(=O)c2ccc(N(C)C)cc2)cc1 [Michler's ketone],CC50,Tox21_110001=Tox21_202416,2.74 µM
Nc1ccc(/N=N/c2ccccc2)c(N)n1 [Phenazopyridine hydrochloride],CC50,Tox21_110001=Tox21_110829,18.5 µM
same,CC50,Tox21_110001=Tox21_202153,45.2 µM
same,CC50,Tox21_110001=Tox21_302738,44.8 µM
CC1=CC(=O)c2ccccc2C1=O [Menadione],CC50,Tox21_110001=Tox21_301367,13 µM
COC(=O)[C@H]1[C@H]2C[C@@H]3c4[nH]c5cc(OC)ccc5c4CCN3C[C@H]2C[C@@H](OC(=O)c2cc(OC)c(OC)c(OC)c2)[C@@H]1OC [Reserpine],CC50,Tox21_110001=Tox21_111107,12.5 µM
same,CC50,Tox21_110001=Tox21_202395,22.9 µM
same,CC50,Tox21_110001=Tox21_300537,75.5 µM
COC(=O)Nc1nc2ccccc2[nH]1 [Carbendazim],CC50,Tox21_110001=Tox21_300478,11.4 µM
CCCCCCCCCCCCCCCC[N+](C)(C)C [Hexadecyltrimethylammonium bromide],CC50,Tox21_110001=Tox21_112096,9.07 µM
same,CC50,Tox21_110001=Tox21_300853,11.7 µM
C=C(CC)C(=O)c1ccc(OCC(=O)O)c(Cl)c1Cl [Ethacrynic acid],CC50,Tox21_110001=Tox21_110335,27 µM
same,CC50,Tox21_110001=Tox21_201102,65.9 µM
Oc1ccc(OCc2ccccc2)cc1 [4-(Benzyloxyl)phenol],CC50,Tox21_110001=Tox21_110396,4.58 µM
same,CC50,Tox21_110001=Tox21_201147,10.2 µM
"CCCCCCCCCc1ccc(O)cc1 [4-Nonylphenol, branched]",CC50,Tox21_110001=Tox21_111040,28.7 µM
same,CC50,Tox21_110001=Tox21_201528,23.6 µM
same,CC50,Tox21_110001=Tox21_300576,22.3 µM
CN(C)C(=S)SSC(=S)N(C)C [Thiram],CC50,Tox21_110001=Tox21_111150,0.159 µM
same,CC50,Tox21_110001=Tox21_201569,12.7 µM
same,CC50,Tox21_110001=Tox21_301102,0.0524 µM
Oc1c(Cl)cc(Cl)cc1Sc1cc(Cl)cc(Cl)c1O [Bithionol],CC50,Tox21_110001=Tox21_110832,12.4 µM
same,CC50,Tox21_110001=Tox21_200384,6.76 µM
same,CC50,Tox21_110001=Tox21_302919,20.3 µM
CCCCCCCC[n+]1ccn(C)c1 [1-Methyl-3-octylimidazolium bromide],CC50,Tox21_110001=Tox21_202653,31.6 µM
CCCCCCCCCCCCn1cc[n+](C)c1 [1-Dodecyl-3-methylimidazolium bromide],CC50,Tox21_110001=Tox21_202628,80.1 µM
O=C(NCC1CCCCN1)c1cc(OCC(F)(F)F)ccc1OCC(F)(F)F (stereo not drawn) [Flecainide],CC50,Tox21_110001=Tox21_110151,36.6 µM
